Reference: patent publication US20190350898A1, “METHODS AND COMPOSITIONS FOR TREATMENT OF ALZHEIMER'S DISEASE” (Neurotrope Bioscience, Inc., priority 2018, published 2019)
“And” between values parts separate entries of the source, which are not always exact repeats. Equal entries are not always repeated.

System: patients with advanced Alzheimer's disease
Assay: Severe Impairment Battery (SIB) change from baseline, double-blind randomized placebo-controlled trial
Format: in vivo, human
Settings: for SIB Total change from baseline, LS Mean / SIB Total, Difference vs. Placebo / SIB Total change from baseline, LS Mean (SE): Bryostatin 20 μg; for SIB Delta at Ave of Week 13 and 15, Mean / SIB Delta at Week 5, Mean / SIB Delta at Week 9, Mean / SIB Delta at Week 13, Mean: Low dose (20), unadjusted; for Combined treatment effect, mean improvement in SIB over placebo: bryostatin 20 μg, post-hoc MMRM; for SIB Total LS Mean difference between 20 μg group and placebo: week 13
Method: In a double-blind, randomized, placebo-controlled trial, bryostatin was administered by intravenous infusion (˜45 minutes) to patients with advanced Alzheimer's disease for 12 weeks at doses of 20 or 40 μg. Randomization was stratified at baseline by severe (MMSE-2, 4-9) and moderate (MMSE-2, 10-15) dementia, wherein MMSE-2 refers to Mini-Mental State Examination, version 2. The MMSE or Folstein test is a 30-point questionnaire that is used extensively in clinical and research settings to measure cognitive impairment. Low scores indicate greater impairment. Version 2 of the MMSE was published in 2010, expanding the original questionnaire's usefulness in populations with milder forms of cognitive impairment. […] Importantly, this cognitive improvement persisted and increased 30 days after all bryostatin dosing had been completed.
Adults aged 55-85 with cognitive deficits present for at least 2 years, MMSE-2 of 4-15, inclusive, and a diagnosis of Alzheimer's dementia were randomly assigned to receive blinded intravenous infusions of bryostatin 24 μg or matching placebo at weeks 0 and 1. The 24 μg and 48 μg doses during the first two weeks of the 20 and 40 μg protocols respectively were considered to be “loading” doses thought to be beneficial from prior experience with Compassionate Use trial patients. Nelson et al., Alzheimers Dis. 2017 58: 521-535. In one arm, the two 24 μg doses were followed by 20 μg doses at weeks 5, 7, 9 and 11 with the Severe Impairment Battery (SIB) measured at baseline and weeks 5, 9, 13, and 15. In a second arm, the two 48 μg doses at weeks 0 and 1 were followed by 40 μg doses at weeks 5, 7, 9, and 11 with the SIB measured at baseline and weeks 5, 9, 13, and 15. The subjects were stratified by MMSE-2 in two strata: Stratum 1 (4-9) and Stratum 2 (10-15). The first primary endpoint was safety and tolerability, assessed by treatment emergent adverse events (TEAEs) with a sample size of 150 subjects randomized 1:1:1. Although efficacy was the secondary measure, the primary efficacy endpoint was SIB improvement at week 13 evaluated using a mixed model for repeated measures. A secondary efficacy endpoint was ADCS-ADL Sev. The primary safety population included all subjects who received at least 1 dose of study drug, and efficacy was evaluated in a modified intent to treat (mITT) population that received at least 1 dose of study drug and had at least one treatment evaluation. Efficacy was evaluated both as a primary end-point in the modified intent-to-treat (mITT) population and also as a primary end point in a Completers population that included all patients that completed the entire protocols as described above.
The SIB efficacy measurement at 30 days (week 15) post dosing—after all dosing had been completed (last dose administered at week 11)—was a pre-specified exploratory endpoint. Week 15 results were only included for subjects who were not re-randomized. The mixed model assumes missing at random, but order of enrollment in the trial was not random. Since order of enrollment was not random, the assumption of missing at random is not met. For this reason, only including week 15 for those who were not re-randomized is an appropriate way to estimate week 15 results, but not an appropriate way to estimate results at the earlier visits. For this reason, estimates up through week 13 are from a mixed model that only included data through week 13 and the week 15 estimates are from a separate model. Results were generated using a mixed model with repeated measures predicting change from baseline in SIB Total Score as the response variable and using baseline score, baseline MMSE strata, treatment, visit (categorical), and visit (treatment) as predictors. […]

[1] = Week 13, Completer, With Memantine
[2] = Week 13, Completer, Without Memantine
[3] = Week 13, FAS (mITT), With Memantine
[4] = Week 13, FAS (mITT), Without Memantine
[5] = Week 15 (30 days post dosing), Completer, MMRM
[6] = Week 15 (30 days post dosing), FAS, MMRM
[7] = Week 15, Completer, With Memantine
[8] = Week 15, Completer, Without Memantine
[9] = Week 15, FAS (mITT), Without Memantine
[10] = Memantine Exposed Patients, FAS
[11] = Memantine Treatment-Naïve Patients, FAS

Structure (SMILES): CCC/C=C/C=C/C(=O)O[C@H]1/C(=C/C(=O)OC)C[C@H]2C[C@H]([C@@H](C)O)OC(=O)C[C@H](O)C[C@@H]3C[C@H](OC(C)=O)C(C)(C)[C@](O)(C[C@@H]4C/C(=C/C(=O)OC)C[C@H](/C=C/C(C)(C)[C@]1(O)O2)O4)O3 [Bryostatin, bryostatin-1]
- SIB Total change from baseline, LS Mean [1]: −0.39
- SIB Total, Difference vs. Placebo [1]: 0.56
- SIB Total change from baseline, LS Mean [2]: 4.22
- SIB Total, Difference vs. Placebo [2]: 5.53
- SIB Total change from baseline, LS Mean [3]: −0.60
- SIB Total, Difference vs. Placebo [3]: −0.14
- SIB Total change from baseline, LS Mean [4]: 3.83 points
- SIB Total, Difference vs. Placebo [4]: 5.11
- SIB Total change from baseline, LS Mean (SE) (Week 13, FAS, MMRM): 1.16 (1.150)
- SIB Total, Difference vs. Placebo (Week 13, FAS, MMRM): 1.94
- SIB Total change from baseline, LS Mean (SE) [5]: 1.96 (1.255)
- SIB Total, Difference vs. Placebo [5]: 4.09
- SIB Total, Difference vs. Placebo (Week 15 (30 days post dosing), Completer, MMRM, listed as bryostatin): 4.0 and 4.09
- SIB Total change from baseline, LS Mean (SE) [6]: 1.77 (1.342) points
- SIB Total, Difference vs. Placebo [6]: 3.59
- SIB Total change from baseline, LS Mean (SE) (Week 15 (30 days post dosing), FAS, MMRM, listed as bryostatin): 1.77 points
- SIB Total change from baseline, LS Mean [7]: −0.71
- SIB Total, Difference vs. Placebo [7]: 1.45
- SIB Total change from baseline, LS Mean [8]: 6.24
- SIB Total, Difference vs. Placebo [8]: 6.36
- SIB Total change from baseline, LS Mean [9]: 5.88 points
- SIB Total, Difference vs. Placebo [9]: 5.93
- SIB Total change from baseline, LS Mean (Week 15, FAS, With Memantine): −0.83
- SIB Total, Difference vs. Placebo (Week 15, FAS, With Memantine): 0.79
- 13-week LS Mean change in SIB (so in the source) (Completers, 20 μg group 'without memantine' as printed): 0.56
- SIB Delta at Ave of Week 13 and 15, Mean [10]: −0.727
- SIB Delta at Week 5, Mean [10]: 0.077
- SIB Delta at Week 9, Mean [10]: −0.087
- SIB Delta at Week 13, Mean [10]: −0.545
- SIB Delta at Ave of Week 13 and 15, Mean [11]: 5.406
- SIB Delta at Week 5, Mean [11]: 3.444
- SIB Delta at Week 9, Mean [11]: 3.467
- SIB Delta at Week 13, Mean [11]: 4.500
- Treatment, adjusted slope (ANCOVA, SIB at 13/15 weeks from baseline, 20 μg Bryostatin vs placebo) (Memantine Exposed, adjusted for Base SIB, MMSE-2): −0.620 (p = 0.815)
- Treatment, adjusted slope (ANCOVA, SIB at 13/15 weeks from baseline, 20 μg Bryostatin vs placebo) (Memantine Exposed, adjusted for Baseline SIB): −0.531 (p = 0.843)
- Treatment, adjusted slope (ANCOVA, SIB at 13/15 weeks from baseline, 20 μg Bryostatin vs placebo) (Memantine Naïve, adjusted for Base SIB, MMSE-2): 5.923 (p = 0.002)
- Treatment, adjusted slope (ANCOVA, SIB at 13/15 weeks from baseline, 20 μg Bryostatin vs placebo) (Memantine Naïve, adjusted for Baseline SIB): 5.426 (p = 0.010)
- Combined treatment effect, mean improvement in SIB over placebo (Weeks 5, 9, 13, and 15, 30-Day Follow-up population): 4.721
- Combined treatment effect, mean improvement in SIB over placebo (Weeks 5, 9, and 13, Completer population): 3.089
- Combined treatment effect, mean improvement in SIB over placebo (Weeks 5, 9, and 13, FAS population): 2.146
- SIB Total LS Mean difference between 20 μg group and placebo (AChEI non-users): 2.00
- SIB Total LS Mean difference between 20 μg group and placebo (AChEI users): 2.09
